According to patent US9126945B2, “N-(3-carbamoylphenly)-1H-pyrazole-5-carboxamide derivatives and the use thereof for controlling animal pests” (BAYER INTELLECTUAL PROPERTY GMBH, priority 2011, dated 2015):

What was measured:
[1] = tested on: Tetranychus urticae; assay: Tetranychus urticae spray test, OP-resistant (TETRUR), bean plants, ppm; assay type: in vivo; conditions: 168 h, 7 dat
From the text: Tetranychus urticae Spray Test, OP-Resistant (TETRUR)
(§1) Solvent: 7 parts by weight of dimethylformamide
(§2) Emulsifier: 2 parts by weight of alkylaryl polyglycol ether
(§3) If the addition of ammonium salts or/and penetrants is required, these are in each case added in a concentration of 1000 ppm to the solution of the preparation.

[2] = tested on: Myzus persicae; assay: Myzus test (MYZUPE spray treatment); assay type: in vivo; conditions: for efficacy in %: application rate 500 g/ha, after 6 days
Procedure: Myzus test (Myzupe spray treatment)
After 6 days, the efficacy in % is determined.
Myzus Test (MYZUPE Spray Treatment)

[3] = tested on: Spodoptera frugiperda; assay: Spodoptera frugiperda test (SPODFR spray treatment), maize leaf discs; assay type: in vivo; conditions: for efficacy in %: application rate 500 g/ha, after 7 days
From the text: Spodoptera frugiperda Test (SPODFR Spray Treatment)

[4] = tested on: Phaedon cochleariae; assay: Phaedon test (PHAECO spray treatment), Chinese cabbage leaf discs; conditions: for inhibition at 20 g/ha: Phaedon cochleariae, in Brassica rapa, foliar, 168 h, read-out: % Activity dat; for efficacy in %: application rate 500 g/ha, after 7 days
[5] = tested on: Phaedon cochleariae; assay: Phaedon cochleariae spray test (PHAECO), cabbage leaves, ppm; assay type: in vivo; conditions: 168 h, 7 dat
From the text: Phaedon cochleariae Spray Test (PHAECO)
as §1, §2, §3

[6] = tested on: Musca domestica; assay: Musca domestica test (MUSCDO); assay type: in vivo; conditions: for kill in % (efficacy): 100 ppm, after 2 days
Procedure: Musca domestica Test (MUSCDO)
(§4) Solvent: dimethyl sulphoxide
Vessels containing a sponge treated with the active compound preparation of the desired concentration are populated with adult Musca domestica.
(§5) After 2 days, the kill in % is determined.
Vessels containing a sponge treated with the active compound formulation of the desired concentration are populated with adult Musca domestica.
After the desired period of time, the kill in % is determined.

[7] = log P by HPLC, EEC Directive 79/831 Annex V.A8, method a); assay type: physicochemical; conditions: reversed-phase C18, acetonitrile/water with formic acid, gradient 10% to 95% acetonitrile; for chromatographic logP: reversed-phase C18 HPLC column; cell marked a): HPLC; for logP: cell marked a): HPLC
Procedure: (§6) ^a) Note regarding the determination of the log P values and mass detection The determination of the given log P values was carried out in accordance with EEC Directive 79/831 Annex V.A8 by HPLC (High Performance Liquid Chromatography) on a reversed-phase column (C18). Agilent 1100 LC system; 50*4.6 Zorbax Eclipse Plus C18 1.8 micron; mobile phase A: acetonitrile (0.1% formic acid); mobile phase B: water (0.09% formic acid); linear gradient from 10% acetonitrile to 95% acetonitrile in 4.25 min, then 95% acetonitrile for a further 1.25 min; oven temperature 55° C.; flow rate: 2.0 ml/min Mass detection is via an Agilend MSD system.
as §6, with “mass detection:” for “mass detection”, “2.0 ml/min.” for “2.0 ml/min”

[8] = tested on: Ctenocephalides felis; assay: Ctenocephalides felis oral (CTECFE); assay type: in vivo; conditions: for kill in % (effect): 100 ppm, after 2 days
Procedure: Ctenocephalides felis Oral (CTECFE)
Solvent: 1 part by weight of dimethyl sulphoxide
For the purpose of producing a suitable preparation of active compound, 10 mg of active compound are mixed with 0.5 ml of dimethyl sulphoxide. A portion of the concentrate is diluted with citrated cattle blood, and the desired concentration is prepared.
(§7) About 20 unfed adult fleas (Ctenocephalides felis) are placed into a chamber which is closed at the top and bottom with gauze. A metal cylinder whose bottom end is closed with parafilm is placed onto the chamber. The cylinder contains the blood/active compound preparation, which can be taken up by the fleas through the parafilm membrane. After 2 days, the kill in % is determined.
For the purpose of preparing an appropriate active compound formulation, 10 mg of active compound are mixed with 0.5 ml of dimethyl sulphoxide. A portion of the concentrate is diluted with citrated cattle blood, and the desired concentration is prepared.
as §7, with “membrane.” for “membrane. After 2 days, the kill in % is determined.”

[9] = tested on: Plutella xylostella; assay: Plutella xylostella spray test (PLUTMA); assay type: in vivo; conditions: 168 h, 7 dat
From the text: Plutella xylostella Spray Test (PLUTMA)
as §1, §2, §3

[10] = tested on: Spodoptera frugiperda; assay: Spodoptera frugiperda spray test (SPODFR), cotton leaves, ppm; assay type: in vivo; conditions: 168 h, 7 dat
From the text: Spodoptera frugiperda Spray Test (SPODFR)
as §1, §2, §3
Cotton leaves (Gossypium hirsutum) are sprayed with an active compound formulation of the desired concentration and populated with caterpillars of the armyworm (Spodoptera frugiperda).

[11] = tested on: Boophilus microplus females of the SP-resistant Parkhurst strain; assay: Boophilus microplus test (DIP); assay type: in vivo; conditions: for efficacy in % (laying of fertile eggs): 100 ppm, after 7 days; for inhibition at 20 ppm: Rhipicephalus microplus, 168 h, BOOPMI DIP, 7 dat
Procedure: Boophilus microplus Test (DIP)
Test animals: adult engorged Boophilus microplus females of the SP-resistant Parkhurst strain
as §4
10 mg of active compound are dissolved in 0.5 ml of dimethyl sulphoxide. For the purpose of preparing a suitable formulation, the active compound solution is diluted with water to the concentration desired in each case.
This active compound preparation is pipetted into tubes. 8-10 ticks are transferred into a further tube with holes. The tube is immersed into the active compound formulation, and all ticks are completely wetted. After the liquid has rum off, the ticks are transferred to filter discs in plastic dishes and kept in a climatized room. The activity is assessed after 7 days by laying of fertile eggs. Eggs whose fertility is not outwardly visible are stored in glass tubes in a climate-controlled cabinet until the larvae hatch. An efficacy of 100% means that none of the ticks has laid any fertile eggs.
10 mg of active compound are dissolved in 0.5 ml of dimethyl sulphoxide. For the purpose of preparing a suitable formulation, the active compound solution is diluted with water to the concentration desired in each case (in ppm).
This active compound preparation is pipetted into tubes. 8-10 ticks are transferred into a further tube with holes. The tube is immersed into the active compound formulation, and all ticks are completely wetted. After the liquid has run out, the ticks are transferred onto filter discs in plastic dishes and stored in a climate-controlled room.
The activity is assessed after the desired time by laying of fertile eggs. Eggs whose fertility is not evident from the outside are kept in glass tubes in a climate-controlled cabinet until the larvae have hatched. An effect of 100% means that none of the ticks has laid any fertile eggs.

[12] = tested on: Boophilus microplus; assay: Boophilus microplus test (BOOPMI injection); assay type: in vivo; conditions: for efficacy in % (laying of fertile eggs): 20 μg/animal, after 7 days; for % Activity dat: BOOPMI injection, 7 dat
Procedure: Boophilus microplus Test (BOOPMI Injection)
as §4
The active compound solution is injected into the abdomen (Boophilus microplus), and the animals are transferred into dishes and stored in a climate-controlled room. The activity is assessed by laying of fertile eggs.
The active compound solution is injected into the abdomen (Boophilus microplus), and the animals are transferred into dishes and stored in a climate-controlled room.
The activity is assessed by laying of fertile eggs. 100% means that none of the ticks has laid any fertile eggs.

[13] = tested on: Tetranychus urticae; assay: Tetranychus test, OP-resistant (TETRUR spray treatment), bean leaf discs; assay type: in vivo; conditions: for efficacy in %: application rate 500 g/ha, after 6 days
Procedure: Tetranychus Test, OP-Resistant (TETRUR Spray Treatment)
After a time of 6 days, the efficacy in % is determined.

[14] = tested on: Lucilia cuprina larvae; assay: Lucilia cuprina test (LUCICU); assay type: in vivo; conditions: 100 ppm; after 2 days
Procedure: Lucilia cuprina Test (LUCICU)
as §4
Vessels containing horse meat treated with the active compound preparation of the desired concentration are populated with about 20 Lucilia cuprina larvae.
as §5

[15] = tested on: Nilaparvata lugens; assay: Nilaparvata lugens spray test (NILALU); assay type: in vivo; conditions: 168 h, 7 dat
From the text: Nilaparvata lugens Spray Test (NILALU)
as §3

[16] = tested on: Liriomyza trifolii; assay: Liriomyza trifolii spray test (LIRITR); assay type: in vivo; conditions: 168 h, 7 dat
From the text: Liriomyza trifolii Spray Test (LIRITR)
as §3

[17] = tested on: Frankliniella occidentalis; assay: Frankliniella occidentalis spray test (FRANOC); assay type: in vivo; conditions: 168 h, 7 dat
From the text: Frankliniella occidentalis Spray Test (FRANOC)
as §3

[18] = tested on: Heliothis armigera; assay: Heliothis armigera spray test (HELIAR); assay type: in vivo; conditions: Helicoverpa armigera, 168 h, 7 dat
From the text: Heliothis armigera Spray Test (HELIAR)
as §1, §2, §3

[19] = Myzus persicae, 144 h, MYZUPE, 6 dat
[20] = Ctenocephalides felis, po, 48 h, CTECFE, 2 dat

Compound	inhibition at 4 ppm [1] [%]	inhibition at 0.8 ppm [5] [%]	kill in % (efficacy) [6] [%]	kill in % (effect) [8] [%]	inhibition at 0.8 ppm [8, 20] [%]	inhibition at 20 ppm [9] [%]	inhibition at 20 ppm [10] [%]	efficacy in % (laying of fertile eggs) [11] [%]	inhibition at 20 ppm [11] [%]	efficacy in % (laying of fertile eggs) [12] [%]	% Activity dat ([12]; 0.032 μg/animal) [%]	inhibition at 100 g/ha [2, 19] [%]	efficacy in % [2] [%]	efficacy in % [3] [%]	efficacy in % [13] [%]	efficacy in % [4] [%]	kill in % (efficacy) [14] [%]	inhibition at 500 g/ha [15] [%]	further results
C[C@H]1C[C@H]1NC(=O)c1cc(NC(=O)c2c(C(F)(F)F)c(C(F)(F)C(F)(F)F)nn2C)ccc1Cl [Ik-279, reference compound]	0	–	–	–	–	–	–	–	–	–	–	–	–	–	–	–	–	–	inhibition at 20 g/ha [2, 19]: 0%; inhibition at 100 g/ha ([3]; Spodoptera frugiperda, foliar, 168 h, SPODFR, 100 g/ha, 7 dat): 50%; inhibition at 20 g/ha [4]: 0%
CN(C(=O)c1c(C(F)(F)F)c(C(F)(F)C(F)(F)F)nn1C)c1ccc(Cl)c(C(=O)NC2(C#N)CC2)c1 [Example 8]	95	100	100	100	90	100	100	100	100	100	100	100	100	100	100	100	100	–	chromatographic logP [7]: 3.21
Cn1nc(C(F)(F)F)c(C(F)(F)F)c1C(=O)Nc1ccc(Cl)c(C(=O)NC2(C#N)CC2)c1 [Example 9]	–	–	–	100	–	–	–	100	–	100	–	–	90	100	100	100	100	–	logP [7]: 2.85 ^a)
Cn1nc(C(F)(F)C(F)(F)F)c(C(F)(F)F)c1C(=O)Nc1ccc(Cl)c(C(=O)NC2(C#N)CCC2)c1 [Example 7]	–	–	100	80	–	–	–	–	–	100	–	–	–	83	100	100	100	–	logP [7]: 3.55 ^a)
Cn1nc(C(F)(F)C(F)(F)F)c(C(F)(F)F)c1C(=O)Nc1ccc(Cl)c(C(=O)NC2(C(F)(F)F)CC2)c1 [Ik-296, reference compound]	–	–	–	–	–	–	–	–	–	–	–	0	–	–	–	–	–	0	inhibition at 500 g/ha [16]: 0%; inhibition at 500 g/ha [17]: 60%
Cn1nc(C(F)(F)C(F)(F)F)c(C(F)(F)F)c1C(=O)Nc1ccc(Cl)c(C(=O)NC2CC2)c1 [Ik-1]	40	–	–	–	0	–	20	–	–	–	–	–	–	–	–	–	–	0	inhibition at 20 g/ha ([17]; 20 g/ha): 0%; inhibition at 20 ppm [18]: 45%
CCN(C(=O)c1c(C(F)(F)F)c(C(F)(F)C(F)(F)F)nn1C)c1ccc(Cl)c(C(=O)NC2(C#N)CC2)c1 [Example 6]	–	100	100	100	80	–	–	100	100	100	70	–	100	100	100	100	100	–	chromatographic logP [7]: 3.36; inhibition at 20 g/ha ([15]; 20 g/ha): 90%; inhibition at 20 g/ha [2, 19]: 70%; inhibition at 20 g/ha ([13]; Tetranychus urticae, foliar, 144 h, TETRUR, 20 g/ha, 6 dat): 100%
C[C@@H]1C[C@H]1NC(=O)c1cc(NC(=O)c2c(C(F)(F)F)c(C(F)(F)C(F)(F)F)nn2C)ccc1Cl [Ik-280]	–	–	–	–	–	65	40	–	–	–	–	–	–	–	–	–	–	–	inhibition at 4 ppm ([5]; 4 ppm): 0%; inhibition at 100 g/ha ([15]; 100 g/ha): 0%; inhibition at 100 ppm ([18]; 100 ppm): 0%
Cn1nc(C(F)(F)C(F)(F)F)c(C(F)(F)F)c1C(=O)Nc1ccc(Cl)c(C(=O)NC2CC2c2ccccc2)c1 (stereo not drawn) [Ik-47]	–	–	–	–	–	0	0	–	–	–	–	–	–	–	–	–	–	0	inhibition at 100 ppm ([6]; Musca domestica, 48 h, MUSCDO, 2 dat): 0%; inhibition at 20 ppm ([1]; 20 ppm): 30%; inhibition at 20 ppm ([8]; Ctenocephalides felis, po, 48 h, CTECFE, 20 ppm, 2 dat): 50%; % Activity dat ([12]; 0.8 μg/animal): 50%; inhibition at 500 g/ha ([2]; Myzus persicae, 144 h, MYZUPE, 500 g/ha, 6 dat): 0%; inhibition at 500 g/ha [17]: 0%; inhibition at 20 g/ha [4]: 0%; inhibition at 20 ppm [18]: 0%
CN(C(=O)c1c(C(F)(F)F)c(C(F)(F)C(F)(F)F)nn1C)c1ccc(Cl)c(C(=O)NC2CC2)c1 [Ik-132, reference compound]	30	5	–	–	30	5	50	–	30	–	0	0	–	–	–	–	–	–	–
